Experiments:
[1] = system: guinea pig intestine primary culture cells; test: GLP-1 secretion from guinea pig intestine primary culture cells; type: cell-based; conditions: test compound 10 μM, 90 min
Experimental: Colon mucous membrane of guinea pig (Hartley, male, Charles River Japan, Inc.) was removed and subjected to an enzyme treatment to give a cell dispersion according to the following method.
The enzyme solution used was obtained by dissolving 5 mg/ml Collagenase (Sigma), 5 mg/ml Hyaluronidase (Sigma) and 0.5 mg/ml DNaseI (Sigma) in a medium. The medium used was Dulbecco's Modified Eagle Medium (DMEM, Invitrogen) supplemented with 4.5 g/l Glucose, 5% FBS (Invitrogen), 100 units/ml Penicillin (Invitrogen), 100 μg/ml Streptomycin (Invitrogen), 50 μg/ml Gentamicin (Invitrogen) and 20 mM Hepes (pH 7.3). After digestion by the enzyme solution at 37° C., the tissue sections were prepared into dispersed cells by passing through a pipette 4 times and the cells were collected. The collected cells were washed with a buffer (incubation buffer) obtained by adding 5.5 mM Glucose and 0.1% BSA to a modified Krebs-Ringer bicarbonate buffer (KRBH, 116 mM NaCl, 4.7 mM KCl, 1.2 mM KH2PO4, 1.2 MM MgSO4, 2.5 mM CaCl2, 25 mM NaHCO3, 24 mM HEPES, pH 7.3), and preincubated at 37° C. under 5% CO2 for 30 min. 0.1 μM Phorbol ester (Wako), 1% DPPIV inhibitor (Linco) and a test compound were added to the above-mentioned incubation buffer, and the obtained buffer was added to the cells after the aforementioned preincubation and incubated for 90 min. The culture supernatant was collected and cryopreserved. The concentration of GLP-1 released in the culture supernatant was measured using an ELISA kit (Linco).

NCI-H716 cells [2] = test: intracellular cAMP production increasing action in NCI-H716 cells; type: cell-based, human; conditions: 10 μM, 2 hrs; production amount in TLCA (50 μM) was 100%; Base 11
Experimental: NCI-H716 (ATCC) was suspended in a medium (Dulbecco's Modified Eagle Medium (DMEM, Invitrogen) supplemented with 10% fetal bovine serum (Invitrogen), 100 U/ml penicillin and 100 μg/ml streptomycin), seeded in a 96 well plate, cultured for 2 days and used for cAMP production assay. As a cAMP assay buffer, modified Krebs-Ringer bicarbonate buffer (KRBH, 116 mM NaCl, 4.7 mM KCl, 1.2 mM KH2PO4, 1.2 MM MgSO4, 2.5 mM CaCl2, 25 mM NaHCO3, 24 mM HEPES pH 7.3), supplemented with glucose 5.5 mM, bovine serum albumin (BSA) 0.1%, and 3-isobutyl-1-methylxanthine (IBMX, Sigma) 1 mM, was used. The cells were washed once with cAMP assay buffer. Bile acids (50 μM) diluted with cAMP assay buffer or the compounds of the present invention (10 μM) were added thereto and the cells were incubated for 2 hrs. The culture supernatant was discarded, and the cAMP production amount was measured by cAMP Screen System (ABI). In the Table, Base means non-addition of a test compound.

guinea pig TGR5 = test: cAMP production increasing activity in guinea pig TGR5 expressing CHO cells; type: cell-based; conditions: test compound 2 μM; 10 μM lithocholic acid = 100%; average of 3 groups
NCI-H716 cells [3] = test: GLP-1 secretion from NCI-H716 cell line; type: cell-based, human; conditions: 5 μM, 2 hrs; secretion amount in Base was 100%
Experimental: NCI-H716 cells secrete Glucagon-like peptide-1 (GLP-1). GLP-1 is a peptide useful for controlling blood glucose level because it acts on the pancreas to cause secretion of insulin and the like. In the same manner as in Experimental Example 9, NCI-H716 (ATCC) was seeded in a 96 well plate and, after incubation for 2 days, used for the following secretion test. As a buffer for secretion test, modified Krebs-Ringer bicarbonate buffer (KRBH, 116 mM NaCl, 4.7 mM KCl, 1.2 mM KH2PO4, 1.2 mM MgSO4, 2.5 mM CaCl2, 25 mM NaHCO3, 24 mM HEPES, pH 7.3) supplemented with glucose 5.5 mM and BSA 0.1% was used. The cells were washed once with the buffer for secretion test, preincubated at 37° C. under 5% CO2, bile acid diluted with the buffer for secretion test was added and the cells were cultured at 37° C. under 5% CO2 for 2 hrs. The cell culture supernatant was collected, cryopreserved and the GLP-1 content in the supernatant was measured using a GLP-1 measurement EIA kit (Linco) The results are shown in Table 9. In the Table, Base means non-addition of a test compound.

[4] = system: guinea pig peripheral blood mononuclear cells; test: TNF secretion in LPS-stimulated guinea pig peripheral blood mononuclear cells; type: cell-based; conditions: 16 hrs, test compound 10 μM; non-addition: 160 with LPS, 13 without
Experimental: (§1) The peripheral blood was taken from guinea pig, and mononuclear cell fraction was obtained by a density separation method using Ficoll-Paque PLUS (Amersham Pharmacia). The fraction at a concentration of 1×10^5/well was cultured for 16 hrs in the presence of […] LPS in a 96-well plate upon addition of bile acid or a test compound. The culture supernatant was collected and TNF and IL-6 in the supernatant were quantitated.
The TNF secretion amount in the culture supernatant was measured in the same manner as in Experimental Example 7.

[5] = system: guinea pig peripheral blood mononuclear cells; test: IL-6 secretion in LPS-stimulated guinea pig peripheral blood mononuclear cells; type: cell-based; conditions: 16 hrs, test compound 10 μM; non-addition: 520 with LPS, 32 without
Experimental: as §1
The quantitation of IL-6 in the culture supernatant was performed using IL-6 dependent cell line 7TD1 (RIKEN Institute) with its growth promoting action as an index. First, 7TD1 cells were suspended in a basic medium (RPMI1640 (Invitrogen) supplemented with 1% non-essential amino acid (Invitrogen) and 55 μM 2-mercaptoethanol (Invitrogen)) and seeded in a 96-well plate at a concentration of 2×10^3/well. Immediately after seeding, peripheral blood mononuclear cell culture supernatant diluted with a dilution medium (the above-mentioned basic medium supplemented with 10% FBS) was added and the cells were cultured for 2 days. The IL-6 content was determined by measuring the growth of the 7TD1 cells in the obtained culture product using a CellTiter-Glo (Promega). As the standard sample, human recombinant IL-6 (Genzyme) was used.

human TGR5 = target: T1, human TGR5 (Homo sapiens, UniProt Q8TDU6); test: cAMP production increasing activity in human TGR5 expressing CHO cells; type: cell-based; conditions: read-out: EC50 value (concentration necessary to make the cAMP production amount 50%)
T1 construct: expressed in transfected cells; host or cells: CHO cells
T1 sequence (Q8TDU6 1-330): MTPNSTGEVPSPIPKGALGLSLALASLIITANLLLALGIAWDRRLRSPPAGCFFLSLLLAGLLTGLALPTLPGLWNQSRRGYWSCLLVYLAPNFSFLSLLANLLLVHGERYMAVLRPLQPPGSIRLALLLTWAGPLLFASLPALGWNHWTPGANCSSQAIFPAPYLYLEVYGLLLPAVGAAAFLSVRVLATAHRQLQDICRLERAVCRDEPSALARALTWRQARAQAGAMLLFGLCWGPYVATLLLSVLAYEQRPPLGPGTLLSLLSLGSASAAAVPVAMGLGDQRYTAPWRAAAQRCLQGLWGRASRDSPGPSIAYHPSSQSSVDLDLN

| SMILES | GLP-1 (% relative to non-addition) [1] | cAMP production increasing activity (%) (NCI-H716 cells [2]) | cAMP producing activity (control %) (guinea pig TGR5) | GLP-1 secretion increase (%) (NCI-H716 cells [3]) | TNF α [4] [pg/mL] | IL-6 [5] [pg/mL] | EC50 (human TGR5) [nM] |
| --- | --- | --- | --- | --- | --- | --- | --- |
| O=S(=O)(c1cc(C(F)(F)F)cc(C(F)(F)F)c1)N1CCOc2nccc(-c3ccccc3)c2C1 [Example 22C, 4-{[3,5-bis(trifluoromethyl)phenyl]sulfonyl}-6-phenyl-2,3,4,5-tetrahydropyrido[3,2-f][1,4]oxazepine] | 313 % relative to non-addition | 100 | 101 | 127 | 66 | 170 | – |
| CC(=O)NCc1cccc(C2OC(CC(=O)NCc3ccccc3C(F)(F)F)C(=O)N(CC(C)(C)C)c3ccc(Cl)cc32)c1 (stereo not drawn) [Example 14, 2-[3,5-trans-5-[3-(acetylaminomethyl)phenyl]-7-chloro-1-neopentyl-2-oxo-1,2,3,5-tetrahydro-4,1-benzoxazepin-3-yl]-N-[2-(trifluoromethyl)benzyl]acetamide] | 167 % relative to non-addition | 104 | 76 | 157 | 83 | 260 | < 100 |

Reference: patent US7625887B2, “Receptor agonists” (Takeda Pharmaceutical Company Limited, priority 2003, dated 2009)
